Reference: patent US8148089B2, “Alpha-synuclein kinase” (Elan Pharma International Limited, priority 2006, dated 2012)
Like-named read-outs stand apart in the source and are kept apart here.

Legend:
PLK2 = PLK2 (Homo sapiens, UniProt Q9NYY3); assay: Straight biochemical assay: PLK2-driven synuclein phosphorylation in vitro; settings: Table 19
[1] = test system: synuclein phosphorylation in C56BL/6 E46K-Synuclein transgenic mouse cortical cultures; format: cell-based
Description: (§1) Mouse cortical cultures from fetal (i) Swiss-Webster, (ii) C56BL/6 WT and (iii) C56BL/6 E46K-Synuclein Trangenic mice were prepared and maintained in B27/DMEM/1% Penicillin-Streptomycin at 37° C./10% CO2 for three to fourteen days and then treated with kinase inhibitors.
(§2) Cultures were exposed to inhibitors for two hours in B27/DMEM/1% Penicillin-Streptomycin. Cells were immediately washed in 100 μL of PBS plus Mg^2+ and Ca^2+, and harvested in ice-cold CEB minus EGTA plus protease inhibitors, frozen on dry ice and stored at −80° C. until processed. A Micro BCA (Pierce) total protein assay, and total synuclein and phospho-synuclein ELISAs were performed on each plate of treated cells using standard methods.

[2] = test system: synuclein phosphorylation in rat ventral mesencephalon cultures (E46K-Synuclein lentivirus); assay: Synuclein phosphorylation in RVM transduced with E46K-Synuclein; format: cell-based
Description: (§3) Rat Ventral Mesencephalon (RVM) cultures were prepared from E15 Wistar rats. The RVM cultures were cultured for 2 days and transduced with 0.75 MOI E46K-Synuclein lentivirus alone, or 0.75 MOI E46K-Synuclein lentivirus plus 0.75 MOI ca-PLK2 lentivirus. […] Transduced cultures were maintained in neuronal media with B27/1% FBS and 37° C./5% CO2 until treated with inhibitors. On DIV 17 (which corresponds to 15 days after viral transduction of the cultures) cells were treated with inhibitors for two hours. Cells were then harvested as detailed above in neuronal media with B27/1% FBS. A Micro BCA (Pierce) total protein assay, and total synuclein and phospho-synuclein ELISAs were performed on each plate of treated cells using standard methods.

[3] = test system: synuclein phosphorylation in rat ventral mesencephalon cultures (E46K-Synuclein plus ca-PLK2 lentivirus); assay: Synuclein phosphorylation in RVM transduced with E46K-Synuclein and caPLK2; format: cell-based; settings: for EC50: inhibitor 2 h on DIV 17
Description: as §3
In caPLK2 the polo-box has been deleted, activating the Thr to Asp mutation in the kinase activation loop.

endogenous kinase (293) = assay: Synuclein phosphorylation by endogenous kinase in HEK-293 cells (synuclein + vector); format: cell-based, human
Description: (§4) All vectors had the sequence coding for the protein of interest. Transfection was accomplished using Lipofectamine 2000 (Invitrogen, Carlsbad, Calif.) with 0.08 μg vector. Cells were washed and harvested 48 hours post-transfection. A Micro BCA (Pierce) total protein assay and total synuclein and phospho-synuclein ELISAs were performed on each plate of treated cells.

[4] = target: T1, over-expressed PLK2 (293) (Homo sapiens, UniProt Q9NYY3); assay: Synuclein phosphorylation in HEK-293 cells over-expressing synuclein and PLK2; format: cell-based; settings: for Rank order of potency, Over-Expressed PLK2 (293): Table 19; for Rank order of potency, Synuclein + PLK2: Table 22
T1 construct: expressed in transfected cells; host or cells: HEK-293 naive cells, CMV-promoter expression vector, Lipofectamine 2000
T1 sequence (Q9NYY3 whole entry): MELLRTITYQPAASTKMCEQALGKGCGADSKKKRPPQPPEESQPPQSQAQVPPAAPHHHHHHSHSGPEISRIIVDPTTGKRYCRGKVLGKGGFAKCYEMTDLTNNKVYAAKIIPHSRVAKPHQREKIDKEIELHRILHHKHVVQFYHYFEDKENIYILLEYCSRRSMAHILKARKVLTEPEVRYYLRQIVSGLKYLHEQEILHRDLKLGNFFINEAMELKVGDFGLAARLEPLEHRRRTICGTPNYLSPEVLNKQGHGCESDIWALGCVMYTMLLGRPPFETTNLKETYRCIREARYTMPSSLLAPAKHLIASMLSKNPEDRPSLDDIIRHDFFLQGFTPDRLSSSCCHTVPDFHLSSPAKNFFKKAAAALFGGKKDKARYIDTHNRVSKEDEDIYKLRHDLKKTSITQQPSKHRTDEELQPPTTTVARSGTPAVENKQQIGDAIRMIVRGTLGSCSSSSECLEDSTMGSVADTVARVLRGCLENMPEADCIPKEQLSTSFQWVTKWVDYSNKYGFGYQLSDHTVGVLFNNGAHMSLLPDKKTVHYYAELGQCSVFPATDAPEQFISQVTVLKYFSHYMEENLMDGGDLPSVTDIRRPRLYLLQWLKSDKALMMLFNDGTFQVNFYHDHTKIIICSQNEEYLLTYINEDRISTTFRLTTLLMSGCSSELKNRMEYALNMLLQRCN
Description: as §4

[5] = target: T2, over-expressed PLK3 (293) (Homo sapiens, UniProt Q9H4B4); assay: Synuclein phosphorylation in HEK-293 cells over-expressing synuclein and PLK3; format: cell-based; settings: for Rank order of potency, Synuclein + PLK3: Table 22
T2 construct: expressed in transfected cells; host or cells: HEK-293 naive cells, CMV-promoter expression vector
T2 sequence (Q9H4B4 whole entry): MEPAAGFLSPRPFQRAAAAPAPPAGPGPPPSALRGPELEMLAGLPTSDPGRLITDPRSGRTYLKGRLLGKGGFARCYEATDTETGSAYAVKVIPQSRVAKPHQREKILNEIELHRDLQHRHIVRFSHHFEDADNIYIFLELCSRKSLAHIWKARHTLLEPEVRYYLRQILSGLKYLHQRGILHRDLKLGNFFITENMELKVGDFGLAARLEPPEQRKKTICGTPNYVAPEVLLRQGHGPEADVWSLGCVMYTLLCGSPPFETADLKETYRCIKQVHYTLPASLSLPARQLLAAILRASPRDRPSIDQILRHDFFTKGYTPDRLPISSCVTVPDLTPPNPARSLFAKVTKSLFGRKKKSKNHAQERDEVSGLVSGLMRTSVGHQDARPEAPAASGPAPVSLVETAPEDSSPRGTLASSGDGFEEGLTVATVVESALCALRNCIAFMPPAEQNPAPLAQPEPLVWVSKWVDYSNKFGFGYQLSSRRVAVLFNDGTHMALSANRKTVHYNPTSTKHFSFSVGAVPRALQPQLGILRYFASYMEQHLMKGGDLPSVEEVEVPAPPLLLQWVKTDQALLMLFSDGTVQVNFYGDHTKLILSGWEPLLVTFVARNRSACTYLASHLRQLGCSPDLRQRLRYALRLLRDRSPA
Description: as §4

[6] = target: T3, over-expressed PLK4 (293) (Homo sapiens, UniProt O00444); assay: Synuclein phosphorylation in HEK-293 cells over-expressing synuclein and PLK4; format: cell-based; settings: for EC50: HEK-293, Example 16, read-out: EC50 based on percent inhibition of synuclein phosphorylation, Synuclein + PLK4
T3 sequence (O00444 1-970): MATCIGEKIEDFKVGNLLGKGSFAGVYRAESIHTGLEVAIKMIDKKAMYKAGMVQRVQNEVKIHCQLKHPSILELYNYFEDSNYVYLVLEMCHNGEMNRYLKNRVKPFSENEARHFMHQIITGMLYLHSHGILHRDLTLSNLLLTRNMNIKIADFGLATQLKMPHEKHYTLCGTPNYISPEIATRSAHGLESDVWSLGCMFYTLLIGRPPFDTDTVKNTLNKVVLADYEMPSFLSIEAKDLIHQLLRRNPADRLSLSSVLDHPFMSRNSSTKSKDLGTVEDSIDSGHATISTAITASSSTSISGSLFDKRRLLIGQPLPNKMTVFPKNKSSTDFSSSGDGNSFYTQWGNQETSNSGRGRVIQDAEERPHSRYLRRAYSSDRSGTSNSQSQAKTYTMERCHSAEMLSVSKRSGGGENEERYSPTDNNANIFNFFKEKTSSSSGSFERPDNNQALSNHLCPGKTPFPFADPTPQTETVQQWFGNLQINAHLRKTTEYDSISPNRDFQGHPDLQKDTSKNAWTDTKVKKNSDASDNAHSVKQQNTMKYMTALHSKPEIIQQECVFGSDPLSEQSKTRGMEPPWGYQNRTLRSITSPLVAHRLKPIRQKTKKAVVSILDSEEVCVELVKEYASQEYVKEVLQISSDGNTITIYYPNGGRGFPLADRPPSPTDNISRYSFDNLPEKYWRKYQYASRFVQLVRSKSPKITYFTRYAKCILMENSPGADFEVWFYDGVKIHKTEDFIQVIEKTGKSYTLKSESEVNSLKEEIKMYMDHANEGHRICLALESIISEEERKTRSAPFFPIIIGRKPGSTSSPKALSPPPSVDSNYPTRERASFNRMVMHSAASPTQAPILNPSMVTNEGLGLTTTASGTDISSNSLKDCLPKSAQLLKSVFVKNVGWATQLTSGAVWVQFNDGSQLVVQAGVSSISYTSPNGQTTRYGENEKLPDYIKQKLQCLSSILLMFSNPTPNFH
Description: as §4

[7] = test system: synuclein phosphorylation in the cellular paradigms tested; assay: Inhibition of synuclein phosphorylation, several cellular paradigms; format: cell-based
[8] = test system: synuclein phosphorylation in MCC; assay: Synuclein phosphorylation in MCC treated with TBB; format: cell-based, mouse; settings: even at concentrations of 100 μM; data not shown
Description: as §1, §2
To confirm that the inhibitory effect DMAT is due to inhibition of […], MCC were treated with TBB, a very specific CKII inhibitor. TBB had no effect on synuclein phosphorylation, even at concentrations of 100 μM (data not shown). Thus, we are confident that the inhibitory effect of DMAT on synuclein phosphorylation is due to its direct activity on PLK2 and not CKII.

[9] = target: synuclein phosphorylation by endogenous kinase in C56BL/6 WT mouse cortical cultures; assay: Synuclein phosphorylation in WT mouse cortical cultures (WT-MCC); format: cell-based; settings: inhibitor 2 h; phospho-synuclein ELISA
Description: as §1, §2

PLK2, sequence (Q9NYY3 whole entry): as the sequence (Q9NYY3 whole entry) above

CN(C)c1nc2c(Br)c(Br)c(Br)c(Br)c2[nH]1 [DMAT, 2-Dimethylamino-4,5,6,7-tetrabromo-1H-benzimidazole]
Rank order of potency, Straight Biochemical (PLK2): 2
Rank order of potency, E46K-Syn TG MCC ([1]; Table 19): 4
Rank order of potency, RVM E46K-Synuclein ([2]; Table 19): 4
EC50 ([3]; Rattus norvegicus): 28.5 µM
Rank order of potency, RVM E46K-Synuclein caPLK2 ([3]; Table 19): 4
Rank order of potency, Synuclein + Vector (endogenous kinase (293); Table 22): 2
Rank order of potency, Over-Expressed PLK2 (293) [4]: 4
Rank order of potency, Synuclein + PLK2 [4]: 2
Rank order of potency, Synuclein + PLK3 [5]: 2
EC50 [6]: 74.3 µM
Rank order of potency, Synuclein + PLK4 ([6]; Table 22): 2
EC50 ([7]; Homo sapiens, HEK293, read-out: EC50 values for the over-expressed PLKs): 14 to 74 µM
EC50 ([7]; read-out: EC50 values for inhibition of synuclein phosphorylation in the cellular paradigms): 16 to 33 µM

NC(=O)c1sc2c([N+](=O)[O-])cc(C(F)(F)F)cc2[n+]1[O-] [ELN-481080]
Rank order of potency, Straight Biochemical (PLK2): 3
EC50 ([3]; Rattus norvegicus): 25.2 µM
Rank order of potency, Over-Expressed PLK2 (293) [4]: 5
Rank order of potency, Synuclein + PLK2 [4]: 3
Rank order of potency, Synuclein + PLK3 [5]: 3
inhibition of synuclein phosphorylation by over-expressed PLK3 ([5]; concentrations of 30-100 μM): 30-40%
EC50 [6]: > 100 µM
inhibition of synuclein phosphorylation by over-expressed PLK4 ([6]; concentrations of 30-100 μM): 30-40%
EC50 ([7]; range over (most of) the cell types tested, read-out: EC50 values for inhibition of synuclein phosphorylation in the cellular paradigms): 12 to 38 µM

CC[C@@H]1C(=O)N(C)c2cnc(Nc3ccc(C(=O)NC4CCN(C)CC4)cc3OC)nc2N1C1CCCC1 [ELN-481574-2, 4-[[(7r)-8-cyclopentyl-7-ethyl-5,6,7,8-tetrahydro-5-methyl-6-oxo-2-pteridinyl]amino]-3-methoxy-n-(1-methyl-4-piperidinyl)-benzamide]
EC50 ([7]; most EC50 values, all cellular paradigms, read-out: EC50 values in cellular paradigms): ≤ 0.1 µM

Brc1c(Br)c(Br)c2[nH]nnc2c1Br [TBB, 4,5,6,7-Tetrabromo-2-azabenzimidazole]
effect on synuclein phosphorylation [8]: no effect

COC[C@H]1OC(=O)c2coc3c2[C@@]1(C)C1=C(C3=O)[C@@H]2CCC(=O)[C@@]2(C)C[C@H]1OC(C)=O [Wortmannin]
EC50 ([3]; Rattus norvegicus): > 100 µM

Scytonemin
EC50 [9]: > 100 µM
EC50 ([1]; inhibitor 2 h, phospho-synuclein ELISA, read-out: E46K-Syn TG MCC (EC50)): > 100 µM
EC50 ([2]; inhibitor 2 h on DIV 17): > 100 µM
EC50 [3]: > 100 µM
EC50 (endogenous kinase (293); Table 18): > 100 µM
inhibition of 50% of synuclein phosphorylation ([7]; in any of the cells or in the in vitro assay): did not inhibit 50% of synuclein phosphorylation
